# Source: patent US11559538B2, “Substituted 1,2-oxaborolan-2-ols as PDE4 inhibitors” (Pfizer Inc., priority 2018, dated 2023)
# Read-outs that look alike come from different tables or passages of the source.
# How the values were obtained:
# [1] = target: PDE4B (aa 152-484, Uniprot ID Q07343) (Homo sapiens (Human), UniProt Q07343); test: PDE4 SPA assay (scintillation proximity assay); assay type: biochemical; settings: read-out: PDE4B2 IC50
# Procedure, shortened: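 PDE4B (aa 152-484, ~81.6 pM) preincubated ~10 min with compound, then 1 μM ³H/unlabeled cAMP added in Tris pH 7.5, 1.3 mM MgCl2, 0.004% Brij 35, ~2% DMSO; 30 min at RT. Product captured on SPA beads and counted; IC50 by four-parameter logistic fit.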
# IL-4 = test: Cytokine assay: IL-4 release from PHA-L stimulated human PBMCs; assay type: cell-based; settings: read-out: IL4 IC50
# Procedure, shortened: (§1)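 PBMC thaw, ~250k cells/well; cpd pre-incubation ~10 min RT; PHA-L 3.5 μg/mL final; 48 h, 37° C, 5% CO2; supernatant HTRF; IC50 by 4-parameter logistic.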
# IL-13 = test: Cytokine assay: IL-13 release from PHA-L stimulated human PBMCs; assay type: cell-based; settings: read-out: IL13 IC50
# Procedure, shortened: as §1
# IFNγ = test: Cytokine assay: IFNγ release from PHA-L stimulated human PBMCs; assay type: cell-based
# Procedure, shortened: as §1
# Chain of PDE4B (aa 152-484, Uniprot ID Q07343) (Q07343 324-656): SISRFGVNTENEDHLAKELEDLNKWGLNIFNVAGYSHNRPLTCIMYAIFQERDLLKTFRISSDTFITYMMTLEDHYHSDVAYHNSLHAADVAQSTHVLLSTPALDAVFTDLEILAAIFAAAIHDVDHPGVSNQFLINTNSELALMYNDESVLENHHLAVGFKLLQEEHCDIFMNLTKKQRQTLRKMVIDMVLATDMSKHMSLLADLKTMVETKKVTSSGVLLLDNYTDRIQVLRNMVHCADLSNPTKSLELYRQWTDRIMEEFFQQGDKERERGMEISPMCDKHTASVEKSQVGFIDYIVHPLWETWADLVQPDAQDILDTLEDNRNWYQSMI
SMILES,IC50 [1] [nM],"IC50 (IL-4; Homo sapiens, PBMC) [nM]","IC50 (IL-13; Homo sapiens, PBMC) [nM]","IC50 (IFNγ; Homo sapiens, PBMC) [nM]",IC50 (IL-4) [nM],IC50 (IL-13) [nM],IC50 (IFNγ) [nM]
"CCOc1cc(-c2c(C)ncc(C3COB(O)C3)c2C)ccc1OC (single isomer, unassigned; enantiomer 1) [Example 205, (+) 4-(5-(3-ethoxy-4-methoxyphenyl)-4,6-dimethylpyridin-3-yl)-1,2-oxaborolan-2-ol, enantiomer 1]",0.52,1.06,1770,1.09,–,–,–
"CCCOc1cc(-c2cc(C3COB(O)C3)cnc2C)cnc1OC (single isomer, unassigned; enantiomer 1) [Example 219, (−) 4-(6′-methoxy-2-methyl-5′-propoxy-[3,3′-bipyridin]-5-yl)-1,2-oxaborolan-2-ol, enantiomer 1]",0.82,4.1,2130,1.67,–,–,–
"CCOc1cc(C2COB(O)C2)nc(-c2ccc(OC)c(OCC)c2)n1 (single isomer, unassigned; enantiomer 1) [Example 223, 4-(6-ethoxy-2-(3-ethoxy-4-methoxyphenyl)pyrimidin-4-yl)-1,2-oxaborolan-2-ol, enantiomer 1]",6.67,30.9,2690,22.5,–,–,–
"CCCOc1cc(-c2nc(CO)cc(C3COB(O)C3)n2)c(F)cc1OC (single isomer, unassigned; enantiomer 2) [Example 154, (−) 4-(2-(2-fluoro-4-methoxy-5-propoxyphenyl)-6-(hydroxymethyl)pyrimidin-4-yl)-1,2-oxaborolan-2-ol, enantiomer 2]",14.1,31.4,893,15.2,–,–,–
"CCOc1cc(-c2cncc(C3COB(O)C3)c2)cc(Cl)c1OC (single isomer, unassigned; enantiomer 2) [Example 173, 4-(5-(3-chloro-5-ethoxy-4-methoxyphenyl)pyridin-3-yl)-1,2-oxaborolan-2-ol, enantiomer 2]",10,–,–,–,77.1,1130,30.2
"COc1cc(-c2ccc(OC)c(OC3CCCC3)c2)nc(C2COB(O)C2)n1 (single isomer, unassigned; enantiomer 2) [Example 176, 4-(4-(3-(cyclopentyloxy)-4-methoxyphenyl)-6-methoxypyrimidin-2-yl)-1,2-oxaborolan-2-ol, enantiomer 2]",5.51,6.51,1140,2.98,–,–,–
"COc1ccc(-c2nc(C3COB(O)C3)ns2)cc1OC1CC1 (single isomer, unassigned; enantiomer 2) [Example 181, (−) 4-(5-(3-cyclopropoxy-4-methoxyphenyl)-1,2,4-thiadiazol-3-yl)-1,2-oxaborolan-2-ol, enantiomer 2]",0.68,2.23,1300,3.17,–,–,–

# Continued, values first:
IC50 [1] [nM],"IC50 (IL-4; Homo sapiens, PBMC) [nM]","IC50 (IL-13; Homo sapiens, PBMC) [nM]","IC50 (IFNγ; Homo sapiens, PBMC) [nM]",IC50 (IL-4) [nM],IC50 (IL-13) [nM],IC50 (IFNγ) [nM],SMILES
4.05,19.6,2860,1.94,–,–,–,"CCCOc1c(OC)ccc(-c2cncc(C3COB(O)C3)n2)c1F (single isomer, unassigned; enantiomer 1) [Example 216, 4-(6-(2-fluoro-4-methoxy-3-propoxyphenyl)pyrazin-2-yl)-1,2-oxaborolan-2-ol, enantiomer 1]"
17.1,141,2780,26.5,–,–,–,"CCCOc1cc(-c2ccc(F)c(C3COB(O)C3)n2)ccc1OC (single isomer, unassigned; enantiomer 1) [Example 230, 4-(3-fluoro-6-(4-methoxy-3-propoxyphenyl)pyridin-2-yl)-1,2-oxaborolan-2-ol, enantiomer 1]"
1.98,1.25,2950,1.72,–,–,–,"CCCOc1nc(-c2cc(C3COB(O)C3)cnc2C)ccc1OC (single isomer, unassigned; enantiomer 1) [Example 231, (−) 4-(5-methoxy-2′-methyl-6-propoxy-[2,3′-bipyridin]-5′-yl)-1,2-oxaborolan-2-ol, enantiomer 1]"
